Data as given in the supplement of paper PMC13380429.

Columns and labels:
[1] = system: A549-ACE2 infected with SARS-CoV-2; assay: SARS-CoV-2 infection rate relative to DMSO; higher = more infection; details: 24 h
[2] = system: A549-ACE2 infected with SARS-CoV-2; assay: cell count relative to DMSO; higher = less toxic; details: 24 h
HepG2 [3] = assay: relative viability EC50 (midpoint between 100% and the lowest measured viability); higher = less toxic; details: 72 h
Calu-3 [4] = assay: as above; details: 72 h
A549-ACE2 [5] = assay: drug-induced phospholipidosis relative to tamoxifen; higher = more phospholipidosis
[6] = system: A549-ACE2 infected with SARS-CoV-2; assay: morphology score (similarity to uninfected cells); higher = more like uninfected cells; details: 24 h
A549-ACE2 [7] = assay: phospholipidosis EC50; higher = less potent phospholipidosis inducer
U2OS [8] = assay: cell viability relative to DMSO; higher = less toxic; details: 72 h
HepG2 [9] = assay: as above; details: 72 h
Calu-3 [10] = assay: as above; details: 72 h
Vero E6 [11] = assay: as above; details: 72 h
Caco-2 [12] = assay: as above; details: 72 h
U2OS [13] = assay: drug sensitivity score (DSS) for viability; higher = more toxic; extreme values may be limits of the assay; details: 72 h
HepG2 [14] = assay: as above; details: 72 h
Calu-3 [15] = assay: as above; details: 72 h
Vero E6 [16] = assay: as above; details: 72 h
Caco-2 [17] = assay: as above; details: 72 h
U2OS [18] = assay: relative viability EC50 (midpoint between 100% and the lowest measured viability); higher = less toxic; details: 72 h
Vero E6 [19] = assay: as above; details: 72 h
Caco-2 [20] = assay: as above; details: 72 h

CN1CCC(CNc2ccc3ncc(-c4cccc(OC(F)(F)F)c4)n3n2)CC1 [SGI-1776]
Details | SARS-CoV-2 infection rate [%] | cell count [%] | cell viability [%] | morphology score | phospholipidosis EC50 [µM]
A549-ACE2 [7], 24 h | – | – | – | – | 5.98
A549-ACE2 [7], 48 h | – | – | – | – | 11.8
A549-ACE2 [7], 72 h | – | – | – | – | 7.83
Caco-2 [12], 1 nM | – | – | 102 | – | –
Caco-2 [12], 10 nM | – | – | 98.7 | – | –
Caco-2 [12], 100 nM | – | – | 101 | – | –
Caco-2 [12], 1000 nM | – | – | 88.2 | – | –
Caco-2 [12], 10000 nM | – | – | 58.6 | – | –
Calu-3 [10], 1 nM | – | – | 95.2 | – | –
Calu-3 [10], 10 nM | – | – | 88.7 | – | –
Calu-3 [10], 100 nM | – | – | 97.4 | – | –
Calu-3 [10], 1000 nM | – | – | 92.8 | – | –
Calu-3 [10], 10000 nM | – | – | 46.2 | – | –
HepG2 [9], 1 nM | – | – | 101 | – | –
HepG2 [9], 10 nM | – | – | 95.1 | – | –
HepG2 [9], 100 nM | – | – | 98.7 | – | –
HepG2 [9], 1000 nM | – | – | 99.9 | – | –
HepG2 [9], 10000 nM | – | – | 37.7 | – | –
U2OS [8], 1 nM | – | – | 102 | – | –
U2OS [8], 10 nM | – | – | 95.4 | – | –
U2OS [8], 100 nM | – | – | 100 | – | –
U2OS [8], 1000 nM | – | – | 92.1 | – | –
U2OS [8], 10000 nM | – | – | 52 | – | –
Vero E6 [11], 1 nM | – | – | 104 | – | –
Vero E6 [11], 10 nM | – | – | 104 | – | –
Vero E6 [11], 100 nM | – | – | 99.5 | – | –
Vero E6 [11], 1000 nM | – | – | 97 | – | –
Vero E6 [11], 10000 nM | – | – | 55 | – | –
[1], 0.1 µM | 94 | – | – | – | –
[1], 0.3 µM | 106 | – | – | – | –
[1], 1 µM | 84 | – | – | – | –
[1], 3 µM | 48 | – | – | – | –
[2], 0.1 µM | – | 105 | – | – | –
[2], 0.3 µM | – | 95 | – | – | –
[2], 1 µM | – | 106 | – | – | –
[2], 3 µM | – | 113 | – | – | –
[6], 0.1 µM | – | – | – | 0.31 | –
[6], 0.3 µM | – | – | – | -0.09 | –
[6], 1 µM | – | – | – | 0.43 | –
[6], 3 µM | – | – | – | 0.76 | –

Details | drug sensitivity score | relative viability EC50 [µM]
Caco-2 [17] | 3.9 | –
Calu-3 [4] | – | 2.09
Calu-3 [15] | 4.1 | –
HepG2 [3] | – | 3.15
HepG2 [14] | 3.4 | –
U2OS [13] | 3.8 | –
Vero E6 [16] | 2.8 | –

drug-induced phospholipidosis [%], A549-ACE2 [5]
Details | 0.3 µM | 0.833333 µM | 3.33333 µM | 6.66667 µM | 10 µM | 30 µM
24 h | 8.28 | 2.67 | 25.6 | 59.2 | 81 | 100
48 h | 2.75 | 0.46 | 18.4 | 53.2 | 85.9 | –
72 h | 3.7 | -1.53 | 13.6 | 50.1 | 79.6 | –

CC/C(=C(/c1ccc(OCCN(C)C)cc1)c1cccc(O)c1)c1ccccc1 [droloxifene]
Details | SARS-CoV-2 infection rate [%] | cell count [%] | cell viability [%] | morphology score | phospholipidosis EC50 [µM]
A549-ACE2 [7], 24 h | – | – | – | – | 1.57
A549-ACE2 [7], 48 h | – | – | – | – | 3.25
A549-ACE2 [7], 72 h | – | – | – | – | 3.45
Caco-2 [12], 1 nM | – | – | 100 | – | –
Caco-2 [12], 10 nM | – | – | 97.1 | – | –
Caco-2 [12], 100 nM | – | – | 92.5 | – | –
Caco-2 [12], 1000 nM | – | – | 97.4 | – | –
Caco-2 [12], 10000 nM | – | – | 43.8 | – | –
Calu-3 [10], 1 nM | – | – | 100 | – | –
Calu-3 [10], 10 nM | – | – | 96.2 | – | –
Calu-3 [10], 100 nM | – | – | 98.7 | – | –
Calu-3 [10], 1000 nM | – | – | 87.1 | – | –
Calu-3 [10], 10000 nM | – | – | 11 | – | –
HepG2 [9], 1 nM | – | – | 87.1 | – | –
HepG2 [9], 10 nM | – | – | 101 | – | –
HepG2 [9], 100 nM | – | – | 96.9 | – | –
HepG2 [9], 1000 nM | – | – | 109 | – | –
HepG2 [9], 10000 nM | – | – | 48.8 | – | –
U2OS [8], 1 nM | – | – | 97.7 | – | –
U2OS [8], 10 nM | – | – | 91.5 | – | –
U2OS [8], 100 nM | – | – | 102 | – | –
U2OS [8], 1000 nM | – | – | 96 | – | –
U2OS [8], 10000 nM | – | – | 75.5 | – | –
Vero E6 [11], 1 nM | – | – | 95.8 | – | –
Vero E6 [11], 10 nM | – | – | 99.1 | – | –
Vero E6 [11], 100 nM | – | – | 93.7 | – | –
Vero E6 [11], 1000 nM | – | – | 95.8 | – | –
Vero E6 [11], 10000 nM | – | – | 92.6 | – | –
[1], 0.3 µM | 93 | – | – | – | –
[1], 3 µM | 64 | – | – | – | –
[1], 10 µM | 13 | – | – | – | –
[1], 30 µM | 39 | – | – | – | –
[2], 0.3 µM | – | 102 | – | – | –
[2], 3 µM | – | 113 | – | – | –
[2], 10 µM | – | 110 | – | – | –
[2], 30 µM | – | 102 | – | – | –
[6], 0.3 µM | – | – | – | 0.24 | –
[6], 3 µM | – | – | – | 0.61 | –
[6], 10 µM | – | – | – | 0.81 | –
[6], 30 µM | – | – | – | 0.15 | –

Details | drug sensitivity score | relative viability EC50 [µM]
Caco-2 [17] | 3.4 | –
Caco-2 [20] | – | 2.8
Calu-3 [4] | – | 2.02
Calu-3 [15] | 7.1 | –
HepG2 [3] | – | 3.84
HepG2 [14] | 2.2 | –
U2OS [13] | 1.5 | –
U2OS [18] | – | > 10
Vero E6 [16] | 0 | –
Vero E6 [19] | – | > 10

drug-induced phospholipidosis [%], A549-ACE2 [5]
Details | 0.3 µM | 0.833333 µM | 3.33333 µM | 6.66667 µM | 10 µM | 30 µM
24 h | 2.02 | 14.1 | 52.7 | 74.9 | 75.2 | 51.7
48 h | 8.07 | 8.41 | 50.9 | 81.7 | 87.7 | –
72 h | 3.83 | 3.63 | 41.9 | 82 | 85.5 | –
